Results from patent publication US9637491B2, “Pyrazolo[4,3-D]pyrimidines as kinase inhibitors” (Origenis GmbH, priority 2012, dated 2017).

Biological target: T1, SYK kinase (Homo sapiens, UniProt P43405)
T1 construct: purchased Invitrogen, Carlsbad
Experiment: SYK assay (OMNIA Kinase Assay, Invitrogen)
Assay type: biochemical
Conditions: SYK Activities; 1 mM ATP, 10 μM Omnia Peptide Substrate Tyr 7, 30° C.
Procedure: In the assay OMNIA® KINASE ASSAY by Invitrogen Corporation (Carlsbad) the effect of invention of a compound on the phosphorylation is determined by measurement of fluorescence intensity of a chelation-enhanced fluorophore called SOX. Upon phosphorylation of the peptide by the kinase of interest, Mg2+ is chelated to form a bridge between the SOX moiety and the phosphate group that is transferred to the specific tyrosine on the peptide. The fluorescence intensity is directly proportional to the amount of peptide phosphorylation.
To the wells of an 384 well small volume plate (Greiner, Frickenhausen) are added (i) the compound under test in 5% DMSO/distilled water (2 μl), (ii) 16 μl of the master mix containing ATP, DTT, Kinase Reaction Buffer, Omina Peptide Substrate Tyr 7 resulting in a final concentration of 1 mM ATP, 0.2 mM DTT and 10 μM Peptide Substrate. The Master Mix and the assay plate was incubated to reaction temperature before the measurement (30° C.). The reaction was started with addition of (iii) 2 μl 4 μg/ml SYK kinase (Invitrogen, Carlsbad). During measurement fluorescence intensitiy readings were collected using a TECAN M1000 at a wavelength of λex 360/λem 485 nm every 30 s for 30 minutes. The reaction velocity was plotted versus the inhibitor concentration to determine the IC50 using XLFit 5.0 (IDBS, Guildford) to fit to a sigmoidal dose response curve.

| Compound | IC50 [µM] |
| --- | --- |
| CN1CCC(n2cc(Nc3nc(C4CC4)nc4cn[nH]c34)cn2)CC1 [Example 207, 5-cyclopropyl-N-(1-(1-methylpiperidin-4-yl)-1H-pyrazol-4-yl)-1H-pyrazolo[4,3-d]pyrimidin-7-amine] | 0.01 to 0.1 |
| CC(C)n1cc(Nc2nc(-c3cccs3)nc3cn[nH]c23)cn1 [Example 431, N-(1-isopropyl-1H-pyrazol-4-yl)-5-(thiophen-2-yl)-1H-pyrazolo[4,3-d]pyrimidin-7-amine] | 0.01 to 0.1 |
| CC(C)(C#N)n1cc(Nc2nc(C3CCC3)nc3cn[nH]c23)cn1 [Example 225, 2-(4-((5-cyclobutyl-1H-pyrazolo[4,3-d]pyrimidin-7-yl)amino)-1H-pyrazol-1-yl)-2-methylpropanenitrile] | 0.1 to 1 |
| Fc1cccc(F)c1-c1nc(Nc2cnn(C3CCOCC3)c2)c2[nH]ncc2n1 [Example 439, 5-(2,6-difluorophenyl)-N-(1-(tetrahydro-2H-pyran-4-yl)-1H-pyrazol-4-yl)-1H-pyrazolo[4,3-d]pyrimidin-7-amine] | 0.1 to 1 |
| O=C1CCCc2ccc(Nc3nc(-c4ccoc4)nc4cn[nH]c34)cc2N1 [Example 107, 8-((5-(furan-3-yl)-1H-pyrazolo[4,3-d]pyrimidin-7-yl)amino)-4,5-dihydro-1H-benzo[b]azepin-2(3H)-one] | 0.01 to 0.1 |
| CN1CCC(n2cc(Nc3nc(-c4cnn(C)c4)nc4cn[nH]c34)cn2)CC1 [Example 190, 5-(1-methyl-1H-pyrazol-4-yl)-N-(1-(1-methylpiperidin-4-yl)-1H-pyrazol-4-yl)-1H-pyrazolo[4,3-d]pyrimidin-7-amine] | 0.01 to 0.1 |
| c1ccc2oc(-c3nc(Nc4cnn(C5CCOCC5)c4)c4[nH]ncc4n3)nc2c1 [Example 446, 5-(benzo[d]oxazol-2-yl)-N-(1-(tetrahydro-2H-pyran-4-yl)-1H-pyrazol-4-yl)-1H-pyrazolo[4,3-d]pyrimidin-7-amine] | 0.01 to 0.1 |
| c1cncc(-c2cccc(-c3nc(Nc4cnn(C5CCNC5)c4)c4[nH]ncc4n3)c2)c1 (stereo not shown) [Example 465, 5-(3-(pyridin-3-yl)phenyl)-N-(1-(pyrrolidin-3-yl)-1H-pyrazol-4-yl)-1H-pyrazolo[4,3-d]pyrimidin-7-amine] | 0.01 to 0.1 |
| CC(C)(C#N)c1ccc(Nc2nc(-c3c(F)cccc3F)nc3cn[nH]c23)cc1 [Example 28, 2-(4-((5-(2,6-difluorophenyl)-1H-pyrazolo[4,3-d]pyrimidin-7-yl)amino)phenyl)-2-methylpropanenitrile] | 0.1 to 1 |
| CC(C)(C)OC(=O)N1CCC(n2cc(Nc3nc(-c4ccco4)nc4cn[nH]c34)cn2)C1 (stereo not shown) [Example 453, tert-butyl 3-(4-((5-(furan-2-yl)-1H-pyrazolo[4,3-d]pyrimidin-7-yl)amino)-1H-pyrazol-1-yl)pyrrolidine-1-carboxylate] | 0.1 to 1 |
| COCCn1cc(Nc2nc(-c3ccc4cn[nH]c4c3)nc3cn[nH]c23)cn1 [Example 131, 5-(1H-indazol-6-yl)-N-(1-(2-methoxyethyl)-1H-pyrazol-4-yl)-1H-pyrazolo[4,3-d]pyrimidin-7-amine] | 0.01 to 0.1 |
| Fc1cc(Nc2nc(-c3ccc4cn[nH]c4c3)nc3cn[nH]c23)ccc1N1CCOCC1 [Example 46, N-(3-fluoro-4-morpholinophenyl)-5-(1H-indazol-6-yl)-1H-pyrazolo[4,3-d]pyrimidin-7-amine] | 0.01 to 0.1 |
| COc1ccc(Nc2nc(C3CCOC3)nc3cn[nH]c23)cc1OC (stereo not shown) [Example 80, N-(3,4-dimethoxyphenyl)-5-(tetrahydrofuran-3-yl)-1H-pyrazolo[4,3-d]pyrimidin-7-amine] | 0.1 to 1 |
| CN1C(=O)COc2ccc(Nc3nc(C4CC4)nc4cn[nH]c34)cc21 [Example 497, 6-((5-cyclopropyl-1H-pyrazolo[4,3-d]pyrimidin-7-yl)amino)-4-methyl-2H-benzo[b][1,4]oxazin-3(4H)-one] | 0.1 to 1 |
| c1cc(N2CCOCC2)ccc1Nc1nc(-c2ccc3[nH]ncc3c2)nc2cn[nH]c12 [Example 179, 5-(1H-indazol-5-yl)-N-(4-morpholinophenyl)-1H-pyrazolo[4,3-d]pyrimidin-7-amine] | 0.01 to 0.1 |
| Fc1cc(Nc2nc(-c3c(F)cccc3F)nc3cn[nH]c23)ccc1N1CCOCC1 [Example 11, 5-(2,6-difluorophenyl)-N-(3-fluoro-4-morpholinophenyl)-1H-pyrazolo[4,3-d]pyrimidin-7-amine] | 0.1 to 1 |
| c1nc(-c2nc(Nc3cnn(C4CCOCC4)c3)c3[nH]ncc3n2)co1 [Example 127, 5-(oxazol-4-yl)-N-(1-(tetrahydro-2H-pyran-4-yl)-1H-pyrazol-4-yl)-1H-pyrazolo[4,3-d]pyrimidin-7-amine] | 0.1 to 1 |

| Compound | IC50 [µM] |
| --- | --- |
| COCCn1cc(Nc2nc(-c3cocn3)nc3cn[nH]c23)cn1 [Example 128, N-(1-(2-methoxyethyl)-1H-pyrazol-4-yl)-5-(oxazol-4-yl)-1H-pyrazolo[4,3-d]pyrimidin-7-amine] | 0.1 to 1 |
| O=C1CCCc2ccc(Nc3nc(-c4ccco4)nc4cn[nH]c34)cc2N1 [Example 113, 8-((5-(furan-2-yl)-1H-pyrazolo[4,3-d]pyrimidin-7-yl)amino)-4,5-dihydro-1H-benzo[b]azepin-2(3H)-one] | 0.01 to 0.1 |
| Oc1ccccc1Nc1nc(-c2ccc3cn[nH]c3c2)nc2cn[nH]c12 [Example 506, 2-((5-(1H-indazol-6-yl)-1H-pyrazolo[4,3-d]pyrimidin-7-yl)amino)phenol] | 0.1 to 1 |
| CC(C)(O)Cn1cc(Nc2nc(-c3ccc4cn[nH]c4c3)nc3cn[nH]c23)cn1 [Example 449, 1-(4-((5-(1H-indazol-6-yl)-1H-pyrazolo[4,3-d]pyrimidin-7-yl)amino)-1H-pyrazol-1-yl)-2-methylpropan-2-ol] | 0.01 to 0.1 |
| CC(=O)N1CCC(n2cc(Nc3nc(-c4cccc(NS(C)(=O)=O)c4)nc4cn[nH]c34)cn2)CC1 [Example 266, N-(3-(7-((1-(1-acetylpiperidin-4-yl)-1H-pyrazol-4-yl)amino)-1H-pyrazolo[4,3-d]pyrimidin-5-yl)phenyl)methanesulfonamide] | 0.1 to 1 |
| CC1CC1c1nc(Nc2ccc(N3CCOCC3)cc2)c2[nH]ncc2n1 (stereo not shown) [Example 101, 5-(2-methylcyclopropyl)-N-(4-morpholinophenyl)-1H-pyrazolo[4,3-d]pyrimidin-7-amine] | 0.01 to 0.1 |
| CC(=O)N1CCC(n2cc(Nc3nc(-c4ccco4)nc4cn[nH]c34)cn2)CC1 [Example 196, 1-(4-(4-((5-(furan-2-yl)-1H-pyrazolo[4,3-d]pyrimidin-7-yl)amino)-1H-pyrazol-1-yl)piperidin-1-yl)ethan-1-one] | < 0.01 |
| Fc1cc2cn[nH]c2cc1-c1nc(Nc2ccc(N3CCOCC3)cc2)c2[nH]ncc2n1 [Example 77, 5-(5-fluoro-1H-indazol-6-yl)-N-(4-morpholinophenyl)-1H-pyrazolo[4,3-d]pyrimidin-7-amine] | 0.01 to 0.1 |
| CC(C)(C)n1cc(Nc2nc(-c3ccc4cn[nH]c4c3)nc3cn[nH]c23)cn1 [Example 415, N-(1-(tert-butyl)-1H-pyrazol-4-yl)-5-(1H-indazol-6-yl)-1H-pyrazolo[4,3-d]pyrimidin-7-amine] | 0.01 to 0.1 |
| CS(=O)(=O)Nc1cccc(-c2nc(Nc3cnn(CCO)c3)c3[nH]ncc3n2)c1 [Example 262, N-(3-(7-((1-(2-hydroxyethyl)-1H-pyrazol-4-yl)amino)-1H-pyrazolo[4,3-d]pyrimidin-5-yl)phenyl)methanesulfonamide] | 0.1 to 1 |
| c1cc(N2CCOCC2)ccc1Nc1nc(-c2cn[nH]c2)nc2cn[nH]c12 [Example 394, N-(4-morpholinophenyl)-5-(1H-pyrazol-4-yl)-1H-pyrazolo[4,3-d]pyrimidin-7-amine] | 0.01 to 0.1 |
| O=C(c1ccc(Nc2nc(C3CCC3)nc3cn[nH]c23)cc1F)N1CCOCC1 [Example 193, (4-((5-cyclobutyl-1H-pyrazolo[4,3-d]pyrimidin-7-yl)amino)-2-fluorophenyl)(morpholino)methanone] | 0.1 to 1 |
| Cc1nn(C2CCOCC2)cc1Nc1nc(-c2ccoc2)nc2cn[nH]c12 [Example 294, 5-(furan-3-yl)-N-(3-methyl-1-(tetrahydro-2H-pyran-4-yl)-1H-pyrazol-4-yl)-1H-pyrazolo[4,3-d]pyrimidin-7-amine] | 0.1 to 1 |
| c1nn(C2CCOCC2)cc1Nc1nc(C2CCC2)nc2cn[nH]c12 [Example 119, 5-cyclobutyl-N-(1-(tetrahydro-2H-pyran-4-yl)-1H-pyrazol-4-yl)-1H-pyrazolo[4,3-d]pyrimidin-7-amine] | 0.01 to 0.1 |
| c1cncc(-c2nc(Nc3ccc(N4CCOCC4)nc3)c3[nH]ncc3n2)c1 [Example 126, N-(6-morpholinopyridin-3-yl)-5-(pyridin-3-yl)-1H-pyrazolo[4,3-d]pyrimidin-7-amine] | 0.1 to 1 |
| CN1CCN(c2ccc(Nc3nc(-c4ccoc4)nc4cn[nH]c34)cn2)CC1 [Example 108, 5-(furan-3-yl)-N-(6-(4-methylpiperazin-1-yl)pyridin-3-yl)-1H-pyrazolo[4,3-d]pyrimidin-7-amine] | 0.1 to 1 |
| FCCn1cc(Nc2nc(-c3ccoc3)nc3cn[nH]c23)cn1 [Example 361, N-(1-(2-fluoroethyl)-1H-pyrazol-4-yl)-5-(furan-3-yl)-1H-pyrazolo[4,3-d]pyrimidin-7-amine] | 0.01 to 0.1 |
